Measurements: ChEMBL document CHEMBL1139194, “Antitumor agents. 256. Conjugation of paclitaxel with other antitumor agents: evaluation of novel conjugates as cytotoxic agents” (Bioorg Med Chem Lett, 2007)

Experiments:
Assay type in all cases: functional
1A9 = experiment: Cytotoxicity against human 1A9 cells by sulforhodamine B assay; details: read-out: ED50 (the source's name)
A549 = experiment: Cytotoxicity against human A549 cells by sulforhodamine B assay; details: read-out: ED50 (the source's name)
MCF7 = experiment: Cytotoxicity against human MCF7 cells by sulforhodamine B assay; details: read-out: ED50 (the source's name)
LNCaP = experiment: Cytotoxicity against human LNCAP cells by sulforhodamine B assay; details: read-out: ED50 (the source's name)
PC-3 = experiment: Cytotoxicity against human PC3 cells by sulforhodamine B assay; details: read-out: ED50 (the source's name)
DU-145 = experiment: Cytotoxicity against human DU145 cells by sulforhodamine B assay; details: read-out: ED50 (the source's name)
KB = experiment: Cytotoxicity against human KB cells by sulforhodamine B assay; details: read-out: ED50 (the source's name)
[1] = Cytotoxicity against multi drug-resistant human KBVIN cells by sulforhodamine B assay; details: read-out: ED50 (the source's name)
HUVEC = experiment: Antiangiogenesis activity against HUVEC cells; details: Homo sapiens, read-out: ED50 (the source's name)

CC[C@@]1(O)C(=O)OCn2c1cc1c(c2=O)Cc2c-1nc1ccccc1c2C=O
EC50 (1A9): 4.3 nM | EC50 (A549): 12.8 nM | EC50 (MCF7): 4.3 nM | EC50 (LNCaP): 4.3 nM | EC50 (PC-3): 18.4 nM | EC50 (DU-145): 7.7 nM | EC50 (KB): 80.6 nM | EC50 [1]: 25 nM

COc1ccc2c(c1)[C@@H](/N=C/c1ccc(C(=O)O[C@H]3C[C@H]4OC[C@@]4(OC(C)=O)[C@H]4[C@H](OC(=O)c5ccccc5)[C@]5(O)C[C@H](OC(=O)[C@H](O)[C@@H](NC(=O)c6ccccc6)c6ccccc6)C(C)=C([C@@H](OC(C)=O)C(=O)[C@]34C)C5(C)C)cc1)CCc1cc(OC)c(OC)c(OC)c1-2
EC50 (1A9): 2.3 nM | EC50 (A549): 3.8 nM | EC50 (KB): 2.3 nM | EC50 [1]: 308 nM | EC50 (HUVEC): 293 nM

CC(=O)O[C@H]1C(=O)[C@@]2(C)[C@H]([C@H](OC(=O)c3ccccc3)[C@]3(O)C[C@H](OC(=O)[C@H](O)[C@@H](NC(=O)c4ccccc4)c4ccccc4)C(C)=C1C3(C)C)[C@]1(OC(C)=O)CO[C@@H]1C[C@@H]2O [PACLITAXEL]
EC50 (1A9): 1 nM | EC50 (A549): 2.3 nM | EC50 (MCF7): 1.1 nM | EC50 (LNCaP): 2.6 nM | EC50 (PC-3): 55.5 nM | EC50 (DU-145): 1.3 nM | EC50 (KB): 1.8 nM | EC50 [1]: 311 nM

COc1cc([C@@H]2c3cc4c(cc3[C@@H](/N=C/c3ccc(C(=O)O[C@H]5C[C@H]6OC[C@@]6(OC(C)=O)[C@H]6[C@H](OC(=O)c7ccccc7)[C@]7(O)C[C@H](OC(=O)[C@H](O)[C@@H](NC(=O)c8ccccc8)c8ccccc8)C(C)=C([C@@H](OC(C)=O)C(=O)[C@]56C)C7(C)C)cc3)[C@H]3COC(=O)[C@H]23)OCO4)cc(OC)c1O
EC50 (1A9): 60.1 nM | EC50 (A549): 111 nM | EC50 (MCF7): 48.6 nM | EC50 (LNCaP): 90.1 nM | EC50 (PC-3): 145 nM | EC50 (DU-145): 139 nM | EC50 (KB): 53.8 nM | EC50 [1]: 6220 nM | EC50 (HUVEC): 230 nM

COc1cc([C@@H]2c3cc4c(cc3[C@@H](NCc3ccc(C(=O)O[C@H]5C[C@H]6OC[C@@]6(OC(C)=O)[C@H]6[C@H](OC(=O)c7ccccc7)[C@]7(O)C[C@H](OC(=O)[C@H](O)[C@@H](NC(=O)c8ccccc8)c8ccccc8)C(C)=C([C@@H](OC(C)=O)C(=O)[C@]56C)C7(C)C)cc3)[C@H]3COC(=O)[C@H]23)OCO4)cc(OC)c1O
EC50 (1A9): 75.7 nM | EC50 (A549): 124 nM | EC50 (MCF7): 68.2 nM | EC50 (LNCaP): 128 nM | EC50 (PC-3): 192 nM | EC50 (DU-145): 168 nM | EC50 (KB): 87.4 nM | EC50 [1]: 5200 nM

COc1cc([C@@H]2c3cc4c(cc3[C@@H](N)[C@H]3COC(=O)[C@H]23)OCO4)cc(OC)c1O
EC50 (1A9): 739 nM | EC50 (A549): 1070 nM | EC50 (MCF7): 686 nM | EC50 (LNCaP): 680 nM | EC50 (PC-3): 1230 nM | EC50 (DU-145): 3110 nM | EC50 (KB): 111 nM | EC50 [1]: 2050 nM

CC[C@@]1(O)C(=O)OCc2c1cc1n(c2=O)Cc2cc3ccccc3nc2-1 [CAMPTOTHECIN]
EC50 (1A9): 3.2 nM | EC50 (A549): 6.9 nM | EC50 (MCF7): 3.2 nM | EC50 (LNCaP): 2 nM | EC50 (PC-3): 16.7 nM | EC50 (DU-145): 10.9 nM | EC50 (KB): 20.9 nM | EC50 [1]: 15 nM

COc1cc2c(c(OC)c1O)-c1ccc(SC)c(=O)cc1[C@@H](NC(C)=O)CC2
EC50 (1A9): 43.6 nM | EC50 (A549): 99.8 nM | EC50 (MCF7): 59.9 nM | EC50 (LNCaP): 59.9 nM | EC50 (PC-3): 112 nM | EC50 (DU-145): 114 nM | EC50 (KB): 47.9 nM | EC50 [1]: 7430 nM

COc1cc2c(c(OC)c1O)-c1ccc(OC)c(=O)cc1[C@@H](NC(C)=O)CC2 [2-DESMETHYLCOLCHICIN]
EC50 (1A9): 184 nM | EC50 (A549): 951 nM | EC50 (MCF7): 361 nM | EC50 (LNCaP): 325 nM | EC50 (PC-3): 475 nM | EC50 (DU-145): 612 nM | EC50 (KB): 146 nM | EC50 [1]: 29000 nM

COc1ccc2c(c1)[C@@H](/N=C/c1ccc(C(=O)O[C@@H](C(=O)O[C@H]3C[C@@]4(O)[C@@H](OC(=O)c5ccccc5)[C@@H]5[C@]6(OC(C)=O)CO[C@@H]6C[C@H](O)[C@@]5(C)C(=O)[C@H](OC(C)=O)C(=C3C)C4(C)C)[C@@H](NC(=O)c3ccccc3)c3ccccc3)cc1)CCc1cc(OC)c(OC)c(OC)c1-2
EC50 (1A9): 2.3 nM | EC50 (A549): 3.8 nM | EC50 (KB): 5.4 nM | EC50 [1]: 308 nM | EC50 (HUVEC): 43 nM
